Literature values as cited in patent publication US12728116B2, “Methods of treating multiple sclerosis” (Vanda Pharmaceuticals Inc., priority 2021, dated 2026).

Test system: adult subjects with relapsing MS
Conditions: comparison values given in brackets; cited from earlier work

SMILES | ECG HR effect: time of nadir post-dose (other S1P receptor modulators) [h]
CCc1cc(/C(C)=N/OCc2ccc(C3CCCCC3)c(C(F)(F)F)c2)ccc1CN1CC(C(=O)O)C1 [siponimod] | 3 to 4
CCCCCCCCc1ccc(CCC(N)(CO)CO)cc1 [fingolimod] | ~6
